# Residues, ends and D or L forms follow the SMILES beside them. *: point of attachment. Butyryl = CCCC(=O)*
# Assays:
# [1] = system: Xanthomonas axonopodis pv. vesicatoria 2133-2; conditions: TSB, 25°C, 48 h, OD 600 nm (Bioscreen C), three replicates, experiment repeated twice; MIC given as range
# Excerpt: The corresponding monomers (flg15, BP13, Pep13, PIP1, BP16, BP100, BP143, BP387, BP475, and KSL-W) were included for comparison.
# (§1) The following plant-pathogenic bacterial strains were used: Erwinia amylovora PMV6076 (Institut National de la Recherche Agronomique, Angers, France), Pseudomonas syringae pv. syringae EPS94 (Institut de Tecnologia Agroalimentària, University of Girona, Spain), Xanthomonas axonopodis pv. vesicatoria 2133-2, X. axonopodis pv. vesicatoria Xav206 (Xav) (D. F. Ritchie, Department of Plant Pathology, North Carolina State University), Pseudomonas syringae pv. actinidiae Psa3700.1.1, Xanthomonas fragariae Xf349-9A (Instituto Valenciano de Investigaciones Agrarias, Valencia, Spain), and Xanthomonas arboricola pv. pruni CFBP5563 (Collection Française de Bactéries Associées aux Plantes, Angers, France). All bacteria except for X. fragariae were stored in Luria Bertani (LB) broth supplemented with glycerol (20%) and maintained at −80°C. For X. fragariae, medium B ([80]) was used instead of LB. E. amylovora, X. arboricola pv. pruni, P. syringae pv. syringae, and P. syringae pv. actinidiae were scraped from the agar medium after growing for 24 h at 25°C, and X. axonopodis pv. vesicatoria and X. fragariae, after growing for 48 h at 25°C. The cell material was suspended in sterile water to obtain a suspension of 10^8 CFU mL^−1.
# (§2) Lyophilized peptides were solubilized in sterile Milli-Q water to a final concentration of 1 mM and filter-sterilized through a 0.22-μm pore filter. […] Then, 20 μL of each dilution were mixed in a microtiter plate well with 20 μL of the corresponding suspension of the bacterial indicator, 160 μL of Trypticase soy broth (TSB) (bioMérieux, France) to a total volume of 200 μL. Three replicates for each combination of strain, compound, and concentration were used. Microbial growth was determined by optical density measurement at 600 nm (Bioscreen C; Labsystem, Helsinki, Finland). Microplates were incubated at 25°C with 20 s of shaking before hourly absorbance measurement for 48 h. The experiment was repeated twice. The MIC was taken as the lowest compound concentration with no growth at the end of the experiment.
# tobacco leaves = assay: Effect of peptide infiltration on tobacco leaves (phytotoxicity); assay type: in vivo; conditions: 100 μL infiltrated into mesophyll, lesion diameter 48 h after infiltration, at least three leaves; ± confidence interval (α = 0.05)
# Description: Peptide conjugates were also assayed for their toxicity in tobacco leaves (Fig. 3, Table SC). After 48 h of infiltration, melittin caused a necrotic area of 0.70 and 2.17 cm in diameter at 50 and 250 μM, respectively. The monomers were not phytotoxic at those concentrations; all of them led to lesions of ≤1.2 cm at 250 μM. All peptide conjugates were also less phytotoxic than melittin, causing necrotic lesions between 0.26 and 1.67 cm in diameter at 250 μM. In particular, 15 of the 30 conjugates led to a necrotic area of <1 cm at this concentration. In general, sequences incorporating BP13 were among the most phytotoxic.
# Peptide conjugates were evaluated for their effect on infiltration on tobacco leaves as described previously ([41]). Peptide solutions of 50, 150, and 250 μM were infiltrated (100 μL) into the mesophylls of fully expanded tobacco leaves. Infiltrations were carried out in a single leaf, and for each peptide and dose, at least three leaves randomly distributed in different plants were inoculated. Control infiltrations with water (negative control) or melittin (positive control) at the same molar concentration were performed. The appearance of symptoms on the leaves was followed for 48 h after infiltration and measured as lesion diameter.
# horse erythrocytes = conditions: TRIS buffer pH 7.2, 1 h, 37°C, absorbance 540 nm, relative to melittin 100 μM, ± confidence interval (α = 0.05)
# Description: The toxicity of peptide conjugates to eukaryotic cells was determined as the ability to lyse erythrocytes (Table SB).
# The hemolytic activity of the compounds was evaluated by determining hemoglobin release from erythrocyte suspensions of horse blood (5% vol/vol) (Oxoid) as previously described ([45]). Blood was centrifuged at 6000g for 5 min, washed three times with TRIS buffer (10 mM TRIS, 150 mM NaCl, pH 7.2) and diluted 10 times. Compounds were solubilized in TRIS buffer at 750, 500, 300, and 100 μM and mixed with horse erythrocytes (1:1 vol/vol). The mixture was incubated with continuous shaking for 1 h at 37°C. Then, the tubes were centrifuged at 3500g for 10 min, 80-μL aliquots of the supernatant were transferred to 100-well microplates (Bioscreen) and diluted with 80 μL water, and the absorbance measured at 540 nm (Bioscreen). […] The percentage of hemolysis (H) was calculated using the equation H = 100 × ([Op − Ob]/[Om − Ob]), where Op is the density for a given compound concentration, Ob is that for the buffer, and Om is that for the melittin positive control.
# [2] = system: Pseudomonas syringae pv. syringae EPS94; assay: In vitro growth inhibition (MIC); assay type: cell-based; conditions: TSB, 25°C, 48 h, OD 600 nm (Bioscreen C), three replicates, experiment repeated twice; MIC given as range
# Description: (§3) Peptide conjugates were tested for in vitro growth inhibition of the plant-pathogenic bacteria E. amylovora PMV6076, Xanthomonas arboricola pv. pruni CFBP5563, X. fragariae Xf349-9A, X. axonopodis pv. vesicatoria 2133-2, P. syringae pv. actinidiae Psa3700.1.1, and P. syringae pv. syringae EPS94 (Fig. 1, Table SA). The corresponding monomers (flg15, BP13, Pep13, PIP1, BP16, BP100, BP143, BP387, BP475, and KSL-W) were included for comparison.
# as §1, §2
# [3] = system: Erwinia amylovora PMV6076; assay: In vitro growth inhibition (MIC); assay type: cell-based; conditions: TSB, 25°C, 48 h, OD 600 nm (Bioscreen C), three replicates, experiment repeated twice; MIC = lowest concentration with no growth, given as range
# Description: as §3, §1, §2
# [4] = system: Xanthomonas fragariae Xf349-9A; assay: In vitro growth inhibition (MIC); assay type: cell-based; conditions: TSB, 25°C, 48 h, OD 600 nm (Bioscreen C), three replicates, experiment repeated twice; MIC given as range
# Description: as §3, §1, §2
# [5] = system: Xanthomonas arboricola pv. pruni CFBP5563; assay: In vitro growth inhibition (MIC); assay type: cell-based; conditions: TSB, 25°C, 48 h, OD 600 nm (Bioscreen C), three replicates, experiment repeated twice; MIC given as range
# Description: as §3, §1, §2
# [6] = system: Pseudomonas syringae pv. actinidiae Psa3700.1.1; assay: In vitro growth inhibition (MIC); assay type: cell-based; conditions: TSB, 25°C, 48 h, OD 600 nm (Bioscreen C), three replicates, experiment repeated twice; MIC given as range
# Description: as §3, §1, §2
Compound,"MIC, Xav [1]",Size of the lesions in infiltrated tobacco leaves at 50 μM (tobacco leaves),Size of the lesions in infiltrated tobacco leaves at 150 μM (tobacco leaves),Size of the lesions in infiltrated tobacco leaves at 250 μM (tobacco leaves),Percent hemolysis at 50 μM (horse erythrocytes),Percent hemolysis at 150 μM (horse erythrocytes),Percent hemolysis at 250 μM (horse erythrocytes),Percent hemolysis at 375 μM (horse erythrocytes),"MIC, Pss [2]","MIC, Ea [3]","MIC, Xf [4]","MIC, Xap [5]","MIC, Psa [6]"
"FKLFKKILKVL-NH2 [BP13, reference compound]",50 to 100 µM,0.20 ± 0.24 cm,0.48 ± 0.15 cm,0.96 ± 0.19 cm,5 ± 0.2%,13 ± 2%,27 ± 3%,42 ± 3%,12.5 to 25 µM,25 to 50 µM,25 to 50 µM,6.2 to 12.5 µM,3.1 to 6.2 µM
"CCCC(=O)NCCCC[C@H](NC(=O)[C@@H](NC(=O)[C@H](CCCCN)NC(=O)[C@H](CCCCN)NC(=O)[C@H](Cc1ccccc1)NC(=O)[C@H](CC(C)C)NC(=O)[C@H](CCCCN)NC(=O)[C@H](CCCCN)NC(C)=O)[C@@H](C)CC)C(=O)N[C@@H](CCCCN)C(=O)N[C@@H](Cc1ccc(O)cc1)C(=O)N[C@@H](CC(C)C)C(N)=O [BP387, reference compound] (Ac-KKLFKKIK(Butyryl)KYL-NH2)",1.6 to 3.1 µM,0.32 ± 0.07 cm,0.84 ± 0.10 cm,0.92 ± 0.01 cm,4 ± 0.9%,11 ± 5%,14 ± 0.5%,18 ± 1%,3.1 to 6.2 µM,3.1 to 6.2 µM,1.6 to 3.1 µM,3.1 to 6.2 µM,3.1 to 6.2 µM
"KKLFKKILKYL-FKLFKKILKVL-NH2 [BP100-BP13, peptide conjugate, BP100 at N-terminus, BP13 at C-terminus]",6.2 to 12.5 µM,0.73 ± 0.20 cm,1.36 ± 0.23 cm,1.46 ± 0.06 cm,100 ± 9.4%,100 ± 5.5%,98 ± 3.3%,99 ± 3.7%,> 50 µM,> 50 µM,6.2 to 12.5 µM,12.5 to 25 µM,25 to 50 µM
"FKLFKKILKVL-KKLFKKILKYL-NH2 [BP13-BP100, peptide conjugate, BP13 at N-terminus, BP100 at C-terminus]",12.5 to 25 µM,0.60 ± 0.30 cm,1.20 ± 0.17 cm,1.30 ± 0.17 cm,100 ± 8.3%,100 ± 5.9%,99 ± 7.1%,100 ± 4.8%,> 50 µM,> 50 µM,6.2 to 12.5 µM,12.5 to 25 µM,25 to 50 µM
"KKLFKKILKKL-FKLFKKILKVL-NH2 [BP16-BP13, peptide conjugate, BP16 at N-terminus, BP13 at C-terminus]",1.6 to 3.1 µM,0.68 ± 0.16 cm,1.15 ± 0.28 cm,1.52 ± 0.32 cm,100 ± 4.0%,100 ± 2.3%,100 ± 8.5%,100 ± 2.1%,12.5 to 25 µM,> 50 µM,12.5 to 25 µM,6.2 to 12.5 µM,25 to 50 µM
"KKLfKKILKYL-FKLFKKILKVL-NH2 [BP143-BP13, peptide conjugate, BP143 at N-terminus, BP13 at C-terminus]",6.2 to 12.5 µM,0.18 ± 0.10 cm,0.40 ± 0.14 cm,1.14 ± 0.36 cm,100 ± 6.1%,100 ± 3.6%,100 ± 7.1%,100 ± 7.0%,> 50 µM,> 50 µM,6.2 to 12.5 µM,12.5 to 25 µM,25 to 50 µM

# From article PMC9238401, “Peptide Conjugates Derived from flg15, Pep13, and PIP1 That Are Active against Plant-Pathogenic Bacteria and Trigger Plant Defense Responses” (Applied and Environmental Microbiology, 2022)
